Measured values published in ChEMBL document CHEMBL1201862, “PubChem BioAssay data set” (2004).
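Dose response: 5 concentrations. Exposure: 48 h. Format: 96-well plates. Endpoint: linear interpolation; highest concentration if not reached. The concentration for 50% growth inhibition is given as GI50.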 The source made the active and inactive calls. Rule as the data show it: active = GI50 up to about 1.1 µM and inactive = higher.

How the values were obtained:
Experiment in all cases: growth of human tumour cells (NCI), 48 h
[1] = system: RPMI-8226
[2] = system: A498
[3] = system: IGROV-1
[4] = system: SW-620
[5] = system: SK-OV-3
[6] = system: HOP-62
[7] = system: NCI-H226
[8] = system: RXF 393
[9] = system: COLO 205
[10] = system: MDA-MB-231
[11] = system: MDA-N
[12] = system: TK-10
[13] = system: OVCAR-3
[14] = system: SK-MEL-5
[15] = system: A549
[16] = system: EKVX
[17] = system: Malme-3M
[18] = system: SN12C
[19] = system: CCRF-CEM
[20] = system: 786-0

Structure (SMILES)	GI50 [1]	GI50 [2]	GI50 [3]	GI50 [4]	GI50 [5]	GI50 [6]	GI50 [7]	GI50 [8]	GI50 [9]	GI50 [10]	GI50 [11]	GI50 [12]	GI50 [13]	GI50 [14]	GI50 [15]	GI50 [16]	GI50 [17]	GI50 [18]	GI50 [19]	GI50 [20]
CC(=O)c1ccc2c(c1)CC1(C2)Cc2cc3c(cc2C1)C(=O)CC3 (stereo not given)	0.345 µM (active)	0.401 µM (active)	2.67 µM (inactive)	0.681 µM (active)	0.723 µM (active)	2.67 µM (inactive)	0.31 µM (active)	2.28 µM (inactive)	0.344 µM (active)	2.51 µM (inactive)	0.207 µM (active)	9.35 µM (inactive)	0.493 µM (active)	0.608 µM (active)	0.792 µM (active)	6 µM (inactive)	1.35 µM (inactive)	4.25 µM (inactive)	0.65 µM (active)	3.64 µM (inactive)
O=C(CC(C(=O)O)N1CCOCC1)c1ccccc1 (stereo not given)	12.7 µM (inactive)	25.1 µM (inactive)	26.2 µM (inactive)	19.8 µM (inactive)	37 µM (inactive)	27.4 µM (inactive)	> 100 µM (inactive)	18.4 µM (inactive)	21.1 µM (inactive)	15.3 µM (inactive)	17.8 µM (inactive)	15.9 µM (inactive)	20 µM (inactive)	19.6 µM (inactive)	57.8 µM (inactive)	18.4 µM (inactive)	18.8 µM (inactive)	17.8 µM (inactive)	3.37 µM (inactive)	15.1 µM (inactive)
CCC(C#N)NC(=O)NC(C#N)CC (stereo not given)	> 100 µM (inactive)	> 100 µM (inactive)	> 100 µM (inactive)	> 100 µM (inactive)	> 100 µM (inactive)	> 100 µM (inactive)	> 100 µM (inactive)	> 100 µM (inactive)	> 100 µM (inactive)	> 100 µM (inactive)	> 100 µM (inactive)	> 100 µM (inactive)	> 100 µM (inactive)	> 100 µM (inactive)	77.3 µM (inactive)	> 100 µM (inactive)	> 100 µM (inactive)	> 100 µM (inactive)	> 100 µM (inactive)	> 100 µM (inactive)
COc1ccc(-c2cc3ccccc3oc2=O)cc1OC	44.6 µM (inactive)	> 100 µM (inactive)	> 100 µM (inactive)	> 100 µM (inactive)	20.3 µM (inactive)	> 100 µM (inactive)	> 100 µM (inactive)	> 100 µM (inactive)	> 100 µM (inactive)	> 100 µM (inactive)	> 100 µM (inactive)	> 100 µM (inactive)	> 100 µM (inactive)	81.5 µM (inactive)	> 100 µM (inactive)	> 100 µM (inactive)	> 100 µM (inactive)	> 100 µM (inactive)	> 100 µM (inactive)	70 µM (inactive)
COc1ccc(NC(=S)N/N=C2\C(=O)Nc3ccccc32)cc1	31.4 µM (inactive)	40.6 µM (inactive)	4.83 µM (inactive)	6.28 µM (inactive)	20.8 µM (inactive)	12.2 µM (inactive)	8.97 µM (inactive)	9.27 µM (inactive)	6.52 µM (inactive)	30.9 µM (inactive)	55.6 µM (inactive)	22 µM (inactive)	28.8 µM (inactive)	9.27 µM (inactive)	5.52 µM (inactive)	9.14 µM (inactive)	12.9 µM (inactive)	40.4 µM (inactive)	2.43 µM (inactive)	7.55 µM (inactive)
c1ccc(/N=C2\c3ccsc3/C(=N/c3ccccc3)c3ccsc32)cc1	1.94 µM (inactive)	8.11 µM (inactive)	1.92 µM (inactive)	1.89 µM (inactive)	6.59 µM (inactive)	1.63 µM (inactive)	5.57 µM (inactive)	1.77 µM (inactive)	2.63 µM (inactive)	1.77 µM (inactive)	0.244 µM (active)	5.6 µM (inactive)	1.92 µM (inactive)	1.09 µM (active)	2.03 µM (inactive)	2.09 µM (inactive)	0.344 µM (active)	1.58 µM (inactive)	2.97 µM (inactive)	2.75 µM (inactive)
COc1ccc(/C=C/C=C2C(=O)NC(=S)NC2=O)cc1	4.91 µM (inactive)	33.9 µM (inactive)	3.91 µM (inactive)	1.78 µM (inactive)	17.7 µM (inactive)	19.4 µM (inactive)	15.7 µM (inactive)	4.35 µM (inactive)	3.83 µM (inactive)	2.11 µM (inactive)	4.07 µM (inactive)	2.52 µM (inactive)	6.78 µM (inactive)	13.3 µM (inactive)	20.3 µM (inactive)	8.91 µM (inactive)	3.34 µM (inactive)	7.35 µM (inactive)	1.59 µM (inactive)	2.35 µM (inactive)
c1ccc2c(c1)[C@@H]1O[C@@H]1[C@@]13O[C@@]21[C@H]1O[C@H]1c1ccccc13	9.16 µM (inactive)	15.7 µM (inactive)	12.2 µM (inactive)	12.8 µM (inactive)	21.5 µM (inactive)	15.5 µM (inactive)	15.3 µM (inactive)	12.6 µM (inactive)	15.7 µM (inactive)	15.8 µM (inactive)	15.6 µM (inactive)	18.1 µM (inactive)	16.5 µM (inactive)	12.9 µM (inactive)	15.7 µM (inactive)	17 µM (inactive)	12.7 µM (inactive)	17.7 µM (inactive)	4.48 µM (inactive)	15.2 µM (inactive)
FC(F)(F)c1nc2nc(Cl)c(Cl)nc2n1CCCN1CCOCC1	23.4 µM (inactive)	97.5 µM (inactive)	26.4 µM (inactive)	42.9 µM (inactive)	> 100 µM (inactive)	> 100 µM (inactive)	> 100 µM (inactive)	25.4 µM (inactive)	54.6 µM (inactive)	78.2 µM (inactive)	35.7 µM (inactive)	> 100 µM (inactive)	64.3 µM (inactive)	61.5 µM (inactive)	> 100 µM (inactive)	23.4 µM (inactive)	56 µM (inactive)	84.9 µM (inactive)	24.7 µM (inactive)	> 100 µM (inactive)
CC1=NN(c2ccccc2)C(=O)C1/N=N/c1ccc(S(N)(=O)=O)cc1 (stereo not given)	> 100 µM (inactive)	> 100 µM (inactive)	> 100 µM (inactive)	> 100 µM (inactive)	> 100 µM (inactive)	> 100 µM (inactive)	> 100 µM (inactive)	> 100 µM (inactive)	> 100 µM (inactive)	> 100 µM (inactive)	> 100 µM (inactive)	> 100 µM (inactive)	> 100 µM (inactive)	> 100 µM (inactive)	> 100 µM (inactive)	> 100 µM (inactive)	> 100 µM (inactive)	> 100 µM (inactive)	> 100 µM (inactive)	> 100 µM (inactive)
Oc1cc(-c2cccc(OC(F)(F)F)c2)nc2cc3c(cc12)OCO3	0.0508 µM (active)	0.516 µM (active)	0.355 µM (active)	0.0883 µM (active)	0.282 µM (active)	0.119 µM (active)	0.239 µM (active)	0.166 µM (active)	1.24 µM (inactive)	0.144 µM (active)	0.0143 µM (active)	5.19 µM (inactive)	0.0547 µM (active)	0.0508 µM (active)	0.182 µM (active)	0.643 µM (active)	0.0435 µM (active)	0.169 µM (active)	0.0301 µM (active)	0.0902 µM (active)
CCCNC(=S)N/N=C1\C(=O)Nc2ccccc21	> 100 µM (inactive)	> 100 µM (inactive)	> 100 µM (inactive)	> 100 µM (inactive)	> 100 µM (inactive)	> 100 µM (inactive)	> 100 µM (inactive)	> 100 µM (inactive)	> 100 µM (inactive)	> 100 µM (inactive)	> 100 µM (inactive)	> 100 µM (inactive)	> 100 µM (inactive)	> 100 µM (inactive)	> 100 µM (inactive)	> 100 µM (inactive)	> 100 µM (inactive)	> 100 µM (inactive)	> 100 µM (inactive)	> 100 µM (inactive)
CCOC(=O)/C(C(=O)c1ccc[nH]1)=C1/CCCN1C	> 100 µM (inactive)	> 100 µM (inactive)	> 100 µM (inactive)	> 100 µM (inactive)	> 100 µM (inactive)	> 100 µM (inactive)	> 100 µM (inactive)	> 100 µM (inactive)	> 100 µM (inactive)	> 100 µM (inactive)	> 100 µM (inactive)	> 100 µM (inactive)	> 100 µM (inactive)	> 100 µM (inactive)	> 100 µM (inactive)	> 100 µM (inactive)	> 100 µM (inactive)	> 100 µM (inactive)	> 100 µM (inactive)	> 100 µM (inactive)
Cc1cccc2c(=O)c3c(O)cc4c(c3n(C)c12)C=CC(C)(C)O4	9.02 µM (inactive)	> 100 µM (inactive)	> 100 µM (inactive)	> 100 µM (inactive)	> 100 µM (inactive)	> 100 µM (inactive)	29.5 µM (inactive)	5.93 µM (inactive)	29 µM (inactive)	> 100 µM (inactive)	35.6 µM (inactive)	> 100 µM (inactive)	> 100 µM (inactive)	29.9 µM (inactive)	77.6 µM (inactive)	25.6 µM (inactive)	> 100 µM (inactive)	> 100 µM (inactive)	22.5 µM (inactive)	71.8 µM (inactive)
